Assay results reported in ChEMBL document CHEMBL1153009, “Synthesis and evaluation of structurally constrained imidazolidin derivatives as potent dipeptidyl peptidase IV inhibitors” (Eur J Med Chem, 2009).

Columns and labels:
Dipeptidyl peptidase 9 = Dipeptidyl peptidase 9 (Homo sapiens, UniProt Q86TI2)
Dipeptidyl peptidase 2 = Dipeptidyl peptidase 2 (Homo sapiens, UniProt Q9UHL4); assay: Inhibition of human recombinant DPP7 expressed in baculovirus-infected Sf9 cells by fluorescence plate reader method

Dipeptidyl peptidase 9, sequence (Q86TI2 whole entry): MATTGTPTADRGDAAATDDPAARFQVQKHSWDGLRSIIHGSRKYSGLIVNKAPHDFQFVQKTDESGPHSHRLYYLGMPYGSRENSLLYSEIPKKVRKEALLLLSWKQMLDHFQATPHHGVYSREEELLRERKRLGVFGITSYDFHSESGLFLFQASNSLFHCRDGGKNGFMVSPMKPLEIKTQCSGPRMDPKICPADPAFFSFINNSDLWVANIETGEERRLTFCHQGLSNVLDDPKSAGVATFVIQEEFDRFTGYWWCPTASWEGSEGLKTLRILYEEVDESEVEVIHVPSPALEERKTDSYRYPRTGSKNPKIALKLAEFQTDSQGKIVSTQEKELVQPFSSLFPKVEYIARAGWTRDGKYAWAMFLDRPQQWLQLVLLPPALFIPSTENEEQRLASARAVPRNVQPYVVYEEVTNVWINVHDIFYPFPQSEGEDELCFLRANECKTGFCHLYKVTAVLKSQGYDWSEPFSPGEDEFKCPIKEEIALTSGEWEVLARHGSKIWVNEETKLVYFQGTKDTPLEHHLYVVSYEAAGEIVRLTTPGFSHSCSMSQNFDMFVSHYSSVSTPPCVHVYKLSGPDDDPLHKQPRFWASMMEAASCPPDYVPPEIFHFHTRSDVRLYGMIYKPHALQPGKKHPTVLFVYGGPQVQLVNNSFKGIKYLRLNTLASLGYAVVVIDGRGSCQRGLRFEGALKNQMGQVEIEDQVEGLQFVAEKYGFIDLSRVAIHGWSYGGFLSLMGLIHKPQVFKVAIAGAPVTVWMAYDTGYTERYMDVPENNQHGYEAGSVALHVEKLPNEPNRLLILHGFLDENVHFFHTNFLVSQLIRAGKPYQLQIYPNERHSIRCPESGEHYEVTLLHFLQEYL

IC50 (Dipeptidyl peptidase 9): > 100 µM | IC50 (Dipeptidyl peptidase 2): > 100 µM
Compound: COc1ccc(N2CCN(CCNCC(=O)N3CCCC3C#N)C2=O)cc1OC (single isomer, unassigned)
